{
  "source": "patent US7592342B2",
  "about": "“Quinoxaline derivatives as PI3 kinase inhibitors” (SmithKline Beecham Corporation, priority 2007, dated 2009)",
  "origin": "cited, not measured here",
  "biological_target": "CK2 protein kinase (Homo sapiens, UniProt P68400)",
  "sequence (P68400 whole entry)": "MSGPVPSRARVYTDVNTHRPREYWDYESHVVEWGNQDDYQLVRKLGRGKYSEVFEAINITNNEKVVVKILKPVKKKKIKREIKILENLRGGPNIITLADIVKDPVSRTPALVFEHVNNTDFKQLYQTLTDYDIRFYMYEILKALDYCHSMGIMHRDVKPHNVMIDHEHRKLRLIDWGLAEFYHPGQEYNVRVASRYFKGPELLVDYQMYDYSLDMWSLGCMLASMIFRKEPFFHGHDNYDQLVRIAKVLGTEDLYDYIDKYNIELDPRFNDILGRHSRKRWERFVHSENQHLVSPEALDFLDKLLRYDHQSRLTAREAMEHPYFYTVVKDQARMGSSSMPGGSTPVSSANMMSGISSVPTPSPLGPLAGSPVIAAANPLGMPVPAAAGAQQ",
  "details": "LY294002, literature",
  "data": [
    {"smiles": "O=c1cc(N2CCOCC2)oc2c(-c3ccccc3)cccc12", "note": "[LY294002]", "values": [
      {"measurement": "IC50", "value": "5 to 10", "unit": "µM"}
    ]}
  ]
}
